Target: dA (isolated discontinuous domain A of LAO) (Salmonella enterica, UniProt P02911, DEL114-206)
Test: biochemical

`N=C(N)NCCC[C@H](N)C(=O)O` [L-arginine] was tested, and the Kd was 131 µM.
